Consider eleven compounds from ChEMBL document CHEMBL1201862, “PubChem BioAssay data set” (2004).

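In this assay, cells in 96-well plates receive the compound at five concentrations for 48 hours. Endpoints are linearly interpolated between the surrounding concentrations. GI50: concentration for 50% inhibition of growth.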 The source made the active and inactive calls. No stated cut-off is given here; in the data, active = GI50 up to about 1.1 µM and inactive = higher. A value given as a limit tells only on which side of the number the result lay.

What all share (experiment): NCI tumour cell line growth inhibition, 48 h
Assay [1] concerns BT-549.
In assay [2] the test system is CAKI-1.
The subject of assay [3] is HOP-92.
Assay [4] relates to KM12.
In assay [5] the test system is LOX IMVI.
For assay [6], the system named is MCF7.
Assay [7] deals with MDA-MB-435.
The test system of assay [8] is MDA-N.
The subject of assay [9] is NCI-H460.
Assay [10] deals with NCI/ADR-RES.
Assay [11] concerns OVCAR-3.
Assay [12] relates to OVCAR-8.
For assay [13], the system named is RPMI-8226.
Assay [14] has as its system RXF 393.
In assay [15] the test system is SF-268.
In assay [16] the test system is SK-MEL-28.
For assay [17], the system named is SK-MEL-2.
In assay [18] the test system is SR.
The test system of assay [19] is UACC-62.
Assay [20] has as its system DMS-114.

For the compound `C=C1C(=O)O[C@@H]2C[C@@H](C)[C@@H]3C=CC(=O)[C@@]3(C)[C@@H](OC(=O)CCCC(=O)O[C@H]3[C@@H]4C(=C)C(=O)O[C@@H]4C[C@@H](C)[C@@H]4C=CC(=O)[C@]43C)[C@H]12`, the GI50 in [1] is 0.0252 µM (active); in assay [2], 0.0323 µM (active); in assay [3], 0.034 µM (active); in [4] it was 0.231 µM (active); in assay [5], 0.0518 µM (active); in assay [6] it was 0.0348 µM (active). In addition, the GI50 is 0.0167 µM (active) in [7]; 0.0183 µM (active) in [8]; 0.27 µM (active) in assay [9]; 0.396 µM (active) in [10]; 0.0398 µM (active) in [11]; 0.0131 µM (active) in [12]. Also, the GI50 in [13] was 0.0107 µM (active); in [14], 0.0187 µM (active); in assay [15], 0.0693 µM (active); in assay [16] it was 0.0495 µM (active); in [17], 0.152 µM (active); in [18], < 0.01 µM (active). Moreover, in assay [19], the GI50 was 0.0565 µM (active).
As for `CC(C)(N)CO[C@H]1C[C@H]2CC[C@@]1(C)C2(C)C`, the GI50 in assay [1] is 23.1 µM (inactive); in [2], 20.2 µM (inactive); in assay [3] it was 14.2 µM (inactive); in assay [4] it was 18.1 µM (inactive); in [5], 17.2 µM (inactive); in assay [6], 19.4 µM (inactive). In addition, the GI50 was 16.3 µM (inactive) in assay [7]; 15.5 µM (inactive) in assay [8]; 17.9 µM (inactive) in [9]; 32.4 µM (inactive) in assay [10]; 49.8 µM (inactive) in assay [11]; 20.6 µM (inactive) in assay [12]. For the same compound, the GI50 is 15.7 µM (inactive) in [13]; 12.9 µM (inactive) in assay [14]; 44.9 µM (inactive) in assay [15]; 12.3 µM (inactive) in assay [16]; 18.5 µM (inactive) in assay [17]; 11.9 µM (inactive) in assay [18]. In assay [19], the GI50 is 18.2 µM (inactive).
For the compound `Cc1c(-c2ccccc2)oc(=O)c2ccccc12`, the GI50 is 13.7 µM (inactive) in assay [1]; 22.4 µM (inactive) in [2]; 11.8 µM (inactive) in assay [3]; 23.4 µM (inactive) in assay [4]; 19.1 µM (inactive) in [5]; 20.4 µM (inactive) in assay [6]. The GI50 in assay [7] is 15.6 µM (inactive); in assay [8], 20 µM (inactive); in assay [9], 26.4 µM (inactive); in [10], 28.4 µM (inactive); in [11], 20.2 µM (inactive); in assay [12], 27.1 µM (inactive). The GI50 is 16.7 µM (inactive) in assay [13]; 16.5 µM (inactive) in assay [14]; 17.4 µM (inactive) in [15]; 19.4 µM (inactive) in assay [16]; 20.4 µM (inactive) in assay [17]; 10.3 µM (inactive) in [18]. Moreover, the GI50 in assay [19] is 16.9 µM (inactive).
In the case of `COc1ccc(SC(C)(SC)c2ccccn2)c(OC)n1` (configuration not stated), the GI50 in [1] was 64.9 µM (inactive); in [2], > 100 µM (inactive); in [3] it was 70 µM (inactive); in assay [4], 79.1 µM (inactive); in assay [5] it was 72.1 µM (inactive); in [6], 60.1 µM (inactive). Moreover, the GI50 in [7] was > 100 µM (inactive); in assay [8], 84.1 µM (inactive); in assay [9], 73.1 µM (inactive); in assay [10] it was 53.6 µM (inactive); in assay [11], 52.8 µM (inactive); in [12], 75.7 µM (inactive). For the same compound, the GI50 is 23.3 µM (inactive) in assay [13]; > 100 µM (inactive) in assay [14]; > 100 µM (inactive) in assay [15]; > 100 µM (inactive) in assay [16]; 30.8 µM (inactive) in assay [17]; 47.2 µM (inactive) in assay [18]. Moreover, the GI50 in [19] is 87.3 µM (inactive).
In the case of `C=CCCCCCCCCCOC1C=CC(OC(C)=O)C(COC(C)=O)O1` (configuration not stated), the GI50 in [1] was 66.4 µM (inactive); in assay [2], 80.5 µM (inactive); in assay [3], 58.2 µM (inactive); in assay [4], 26.9 µM (inactive); in assay [5], 34.2 µM (inactive); in assay [6], 38.8 µM (inactive). For the same compound, the GI50 in assay [7] is 50.8 µM (inactive); in [8], 44.3 µM (inactive); in assay [9] it was 38.7 µM (inactive); in [10], 41.4 µM (inactive); in assay [11], 44.4 µM (inactive); in [12] it was 18.1 µM (inactive). Moreover, the GI50 was 13.2 µM (inactive) in assay [13]; > 100 µM (inactive) in assay [14]; 37.3 µM (inactive) in assay [15]; > 100 µM (inactive) in assay [16]; 38.3 µM (inactive) in assay [17]; 32.7 µM (inactive) in [18]. In addition, in assay [19], the GI50 was 46.8 µM (inactive).
On to `CC(C)(C)N/N=C(\C(=O)Nc1ccc([N+](=O)[O-])cc1[N+](=O)[O-])c1nc2ccc([N+](=O)[O-])cc2nc1O`, for which the GI50 is > 100 µM (inactive) in [1]; > 100 µM (inactive) in [2]; > 100 µM (inactive) in [3]; 34.4 µM (inactive) in [4]; 58.7 µM (inactive) in assay [5]; 79.6 µM (inactive) in [6]. The GI50 was > 100 µM (inactive) in assay [7]; > 100 µM (inactive) in assay [8]; 31.8 µM (inactive) in assay [9]; > 100 µM (inactive) in [10]; > 100 µM (inactive) in assay [11]; 48.5 µM (inactive) in assay [12]. In addition, the GI50 in assay [13] is 13.2 µM (inactive); in [14] it was > 100 µM (inactive); in assay [15], > 100 µM (inactive); in [16], > 100 µM (inactive); in [17], > 100 µM (inactive); in [18], 31.3 µM (inactive). For the same compound, in assay [19], the GI50 was > 100 µM (inactive).
As for `CO[C@H]1O[C@@H]2CO[C@@H](c3ccccc3)O[C@H]2[C@@H]2CC=CCC[C@]12O`, the GI50 in assay [1] was 24.6 µM (inactive); in [2], > 100 µM (inactive); in [3] it was 49.8 µM (inactive); in assay [4], 65.3 µM (inactive); in assay [5], 74.3 µM (inactive); in [6] it was 42.6 µM (inactive). Also, the GI50 in [7] was 45.7 µM (inactive); in assay [8] it was 50.9 µM (inactive); in assay [9] it was 35.7 µM (inactive); in [10] it was 44.4 µM (inactive); in [11], 69.7 µM (inactive); in assay [12], 73.1 µM (inactive). Besides, the GI50 in assay [13] was 23.7 µM (inactive); in assay [14], 62.1 µM (inactive); in [15], 21.8 µM (inactive); in [16], > 100 µM (inactive); in assay [17], 65.5 µM (inactive); in [18] it was 30.8 µM (inactive). For the same compound, the GI50 in [19] is 63.4 µM (inactive).
As for `C/C=C/C(C#N)(Cc1ccccc1)OP1(=O)OC(c2ccccc2)C(C)N1C` (configuration not stated), the GI50 is 90.2 µM (inactive) in assay [1]; > 100 µM (inactive) in assay [2]; 73.3 µM (inactive) in [3]; 45.6 µM (inactive) in [4]; 44.1 µM (inactive) in [5]; 54.2 µM (inactive) in assay [6]. The GI50 is 48.4 µM (inactive) in assay [7]; 88.1 µM (inactive) in assay [8]; 43.6 µM (inactive) in assay [9]; 72.4 µM (inactive) in assay [10]; 56.8 µM (inactive) in assay [11]; 86.7 µM (inactive) in assay [12]. In addition, the GI50 in assay [13] is 33 µM (inactive); in assay [14] it was > 100 µM (inactive); in assay [15] it was > 100 µM (inactive); in [16] it was > 100 µM (inactive); in assay [17] it was > 100 µM (inactive); in assay [18] it was 36 µM (inactive). The GI50 in assay [19] was 56.5 µM (inactive).
For the compound `CC(C)C(=O)N[C@@H](C)C(=O)N(Cc1ccc2ccccc2c1)N=O`, the GI50 in assay [2] was 40.5 µM (inactive); in assay [20] it was 33.7 µM (inactive); in assay [4], > 10 µM (inactive); in assay [5], 46 µM (inactive); in assay [9] it was 82 µM (inactive); in assay [11], 62.7 µM (inactive). The GI50 is > 100 µM (inactive) in assay [12]; 43.6 µM (inactive) in assay [13]; > 100 µM (inactive) in assay [15]; > 100 µM (inactive) in [16]; 98.9 µM (inactive) in [17]; 48 µM (inactive) in [19].
`N=C(N)N/N=C/c1c(-c2ccc([N+](=O)[O-])cc2)nc2n1CCS2`: the GI50 is 17.1 µM (inactive) in assay [1]; 17.5 µM (inactive) in [2]; 18.4 µM (inactive) in assay [3]; 4.84 µM (inactive) in assay [4]; 8.26 µM (inactive) in assay [5]; 6.9 µM (inactive) in [6]. Further, the GI50 in assay [7] was 14.8 µM (inactive); in [8] it was 11.9 µM (inactive); in assay [9], 15.3 µM (inactive); in assay [10], > 72.4 µM (inactive); in assay [11], 14.8 µM (inactive); in assay [12], 11 µM (inactive). The GI50 in assay [13] is 38 µM (inactive); in assay [14] it was 8.51 µM (inactive); in assay [15], 9.55 µM (inactive); in assay [16] it was 17.3 µM (inactive); in [17], 7.35 µM (inactive); in assay [18], 2.25 µM (inactive). Further, in assay [19], the GI50 was 16.7 µM (inactive).
As to `COc1cc2ncnc(Nc3cccc(Cl)c3)c2cc1OC` [TYRPHOSTIN AG-1478], the GI50 in assay [1] is 1.42 µM (inactive); in assay [2], 0.248 µM (active); in assay [3], 5.19 µM (inactive); in [4], 5.73 µM (inactive); in assay [5], 11.5 µM (inactive); in [6], 21.5 µM (inactive). For the same compound, the GI50 in [7] was 11.9 µM (inactive); in assay [8] it was 15.1 µM (inactive); in [9], 13.4 µM (inactive); in assay [10], 3.63 µM (inactive); in assay [11], 3.05 µM (inactive); in [12], 3.66 µM (inactive). Further, the GI50 was 8.85 µM (inactive) in [13]; 9.42 µM (inactive) in assay [14]; 4.67 µM (inactive) in [15]; 9.38 µM (inactive) in assay [16]; 9.27 µM (inactive) in [17]; 7.33 µM (inactive) in [18]. The GI50 in assay [19] was 7.14 µM (inactive).
